Target: recombinant human Nav1.7 (Homo sapiens (Human), UniProt Q15858)
Experiment: FRET-based membrane potential assay, recombinant human sodium channel Nav1.7
Type: cell-based
Settings: HEK293 cells stably expressing recombinant human Nav1.7; veratridine + scorpion venom depolarization; read-out: FRET-Membrane Potential Nav1.7 IC50
Summary of the method: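 Channel activation used veratridine at its EC80, set by a dilution curve each experiment, together with Leiurus scorpion venom, added 3 min after compound. Membrane-potential ratio signals from FLIPR Tetra in HEPES-buffered HBSS were fitted to a four-parameter Hill equation for percent inhibition and IC50.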

recombinant human Nav1.7, sequence (Q15858 whole entry): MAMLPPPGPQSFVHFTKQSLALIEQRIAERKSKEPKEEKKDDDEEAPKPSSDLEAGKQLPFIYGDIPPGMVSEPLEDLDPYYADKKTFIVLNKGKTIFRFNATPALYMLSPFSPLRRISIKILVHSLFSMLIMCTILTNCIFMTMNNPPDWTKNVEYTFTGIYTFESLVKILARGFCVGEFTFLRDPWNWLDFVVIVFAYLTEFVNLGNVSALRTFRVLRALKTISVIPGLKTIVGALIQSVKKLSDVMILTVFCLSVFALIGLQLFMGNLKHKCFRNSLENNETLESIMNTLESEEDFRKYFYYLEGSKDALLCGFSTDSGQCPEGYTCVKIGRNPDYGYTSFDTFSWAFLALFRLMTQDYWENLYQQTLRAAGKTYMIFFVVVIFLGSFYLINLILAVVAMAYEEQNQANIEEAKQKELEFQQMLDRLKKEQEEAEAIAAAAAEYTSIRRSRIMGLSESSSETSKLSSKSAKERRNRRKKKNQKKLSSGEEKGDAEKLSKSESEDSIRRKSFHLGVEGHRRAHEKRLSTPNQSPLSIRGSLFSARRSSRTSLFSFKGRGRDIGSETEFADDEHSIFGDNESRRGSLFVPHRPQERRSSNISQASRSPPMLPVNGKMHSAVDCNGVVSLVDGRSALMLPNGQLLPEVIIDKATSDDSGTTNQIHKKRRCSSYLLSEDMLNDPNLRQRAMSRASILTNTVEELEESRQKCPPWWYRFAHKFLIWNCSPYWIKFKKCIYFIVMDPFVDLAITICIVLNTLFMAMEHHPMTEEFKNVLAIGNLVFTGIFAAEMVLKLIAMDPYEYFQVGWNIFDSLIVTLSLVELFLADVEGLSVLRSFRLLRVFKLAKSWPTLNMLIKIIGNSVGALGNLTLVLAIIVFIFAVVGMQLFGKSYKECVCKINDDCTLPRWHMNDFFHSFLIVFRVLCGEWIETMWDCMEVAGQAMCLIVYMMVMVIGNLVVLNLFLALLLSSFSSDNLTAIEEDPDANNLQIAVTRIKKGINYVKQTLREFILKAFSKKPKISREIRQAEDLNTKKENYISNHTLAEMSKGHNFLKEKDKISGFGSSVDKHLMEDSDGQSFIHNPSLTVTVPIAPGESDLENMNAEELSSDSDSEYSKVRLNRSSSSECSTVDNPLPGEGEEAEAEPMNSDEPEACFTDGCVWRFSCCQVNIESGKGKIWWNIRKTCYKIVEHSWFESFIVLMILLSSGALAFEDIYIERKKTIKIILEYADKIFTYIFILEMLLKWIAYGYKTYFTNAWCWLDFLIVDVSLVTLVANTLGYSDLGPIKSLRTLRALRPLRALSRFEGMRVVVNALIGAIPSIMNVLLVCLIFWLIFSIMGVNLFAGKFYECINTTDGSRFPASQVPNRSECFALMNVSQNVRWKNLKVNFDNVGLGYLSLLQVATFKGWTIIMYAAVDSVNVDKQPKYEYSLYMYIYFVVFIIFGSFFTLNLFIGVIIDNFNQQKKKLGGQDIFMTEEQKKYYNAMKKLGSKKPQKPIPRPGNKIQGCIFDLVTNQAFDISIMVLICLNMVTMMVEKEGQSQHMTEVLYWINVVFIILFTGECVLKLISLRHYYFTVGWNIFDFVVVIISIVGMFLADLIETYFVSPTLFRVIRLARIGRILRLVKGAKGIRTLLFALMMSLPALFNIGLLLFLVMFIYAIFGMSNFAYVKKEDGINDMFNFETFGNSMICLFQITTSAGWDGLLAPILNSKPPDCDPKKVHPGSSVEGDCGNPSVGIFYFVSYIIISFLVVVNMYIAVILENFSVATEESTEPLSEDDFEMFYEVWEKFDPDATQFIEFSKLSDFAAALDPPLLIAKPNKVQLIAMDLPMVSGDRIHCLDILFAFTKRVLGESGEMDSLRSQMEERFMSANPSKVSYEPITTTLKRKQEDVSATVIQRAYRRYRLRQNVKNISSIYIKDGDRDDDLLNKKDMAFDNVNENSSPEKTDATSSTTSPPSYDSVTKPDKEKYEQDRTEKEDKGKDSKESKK

Row | Molecule | IC50 [µM]
1 | O=C(c1ccc2cc(Oc3ccc(C(F)(F)F)cn3)ccc2n1)N1CCN(S(=O)(=O)CC2CCOC2)CC1 (stereo not drawn) [Example 385, {4-[(tetrahydrofuran-3-ylmethyl)sulfonyl]piperazin-1-yl}(6-{[5-(trifluoromethyl)pyridin-2-yl]oxy}quinolin-2-yl)methanone] | 2.33
2 | O=C(c1ccc2cc(Oc3ccc(C(F)(F)F)cn3)ccc2n1)N1CCN(CC(F)F)CC1 [Example 298, [4-(2,2-difluoroethyl)piperazin-1-yl](6-{[5-(trifluoromethyl)pyridin-2-yl]oxy}quinolin-2-yl)methanone] | 12.3
3 | N#Cc1ccc(Oc2ccc3nc(C(=O)NCc4ccc5c(c4)OCO5)ccc3c2)cc1 [Example 104, N-(1,3-benzodioxol-5-ylmethyl)-6-(4-cyanophenoxy)quinoline-2-carboxamide] | > 20
4 | N#Cc1ccc(Oc2ccc3nc(C(=O)N[C@H]4CCC[C@@H](O)C4)ccc3c2)cc1 [Example 129, 6-(4-cyanophenoxy)-N-[(1S,3R)-3-hydroxycyclohexyl]quinoline-2-carboxamide] | 2.58
5 | CN(CC(=O)NC1CC1)C(=O)c1ccc2cc(Oc3ccc(C(F)(F)F)cn3)ccc2n1 [Example 452, N-[2-(cyclopropylamino)-2-oxoethyl]-N-methyl-6-{[5-(trifluoromethyl)pyridin-2-yl]oxy}quinoline-2-carboxamide] | 3.21
6 | O=C(NC1CC(F)C1)c1ccc2cc(Oc3ccc(C(F)(F)F)cn3)ccc2n1 (stereo not drawn) [Example 604, N-(3-fluorocyclobutyl)-6-{[5-(trifluoromethyl)pyridin-2-yl]oxy}quinoline-2-carboxamide] | 3.01
7 | O=C(c1ccc2cc(Oc3ccc(C(F)(F)F)cn3)ccc2n1)N1CC(F)(F)C[C@@H]1CO [Example 496, [(2R)-4,4-difluoro-2-(hydroxymethyl)pyrrolidin-1-yl](6-{[5-(trifluoromethyl)pyridin-2-yl]oxy}quinolin-2-yl)methanone] | 2.91
8 | CC(C)C(CO)NC(=O)c1ccc2cc(Oc3ccc(C#N)cc3)ccc2n1 (stereo not drawn) [Example 95, 6-(4-cyanophenoxy)-N-(1-hydroxy-3-methylbutan-2-yl)quinoline-2-carboxamide] | 4.87
9 | N#Cc1ccc(Oc2ccc3nc(C(=O)N[C@H]4CC[C@H](O)CC4)ccc3c2)cc1 [Example 125, 6-(4-cyanophenoxy)-N-(trans-4-hydroxycyclohexyl)quinoline-2-carboxamide] | 3.46
10 | O=C(c1ccc2cc(Oc3ccc(C(F)(F)F)cn3)ccc2n1)N1CCC(CO)CC1 [Example 265, [4-(hydroxymethyl)piperidin-1-yl](6-{[5-(trifluoromethyl)pyridin-2-yl]oxy}quinolin-2-yl)methanone] | 3.45
11 | O=C(c1ccc2cc(Oc3ccc(C(F)F)cn3)ccc2n1)N1CCN[C@@H](CO)C1 [Example 440, (6-{[5-(difluoromethyl)pyridin-2-yl]oxy}quinolin-2-yl) [(3R)-3-(hydroxymethyl)piperazin-1-yl]methanone] | 12.6
12 | CO[C@H]1C[C@H](NC(=O)c2ccc3cc(Oc4ccc(C(F)(F)F)cn4)ccc3n2)C1 [Example 397, N-(trans-3-methoxycyclobutyl)-6-{[5-(trifluoromethyl)pyridin-2-yl]oxy}quinoline-2-carboxamide] | 0.896
13 | Cc1cc(C)nc(Oc2ccc3nc(C(=O)NC4CCS(=O)(=O)C4)ccc3c2)n1 (stereo not drawn) [Example 162, 6-[(4,6-dimethylpyrimidin-2-yl)oxy]-N-(1,1-dioxidotetrahydrothiophen-3-yl)quinoline-2-carboxamide] | > 20
14 | O=C(c1ccc2cc(Oc3ccc(C(F)(F)F)nn3)ccc2n1)N1CCNCC1 [Example 246, piperazin-1-yl(6-{[6-(trifluoromethyl)pyridazin-3-yl]oxy}quinolin-2-yl)methanone] | 19.8
15 | [cis-2,2-dimethyltetrahydro-5H-[1,3]dioxolo[4,5-c]pyrrol-5-yl](6-{[5-(trifluoromethyl)pyridin-2-yl]oxy}quinolin-2-yl)methanone [Example 373] | 3.7
16 | N#CCCCNC(=O)c1ccc2cc(Oc3ccc(C(F)(F)F)cn3)ccc2n1 [Example 595, N-(3-cyanopropyl)-6-{[5-(trifluoromethyl)pyridin-2-yl]oxy}quinoline-2-carboxamide] | 1.13
17 | O=C(c1ccc2cc(Oc3ccc(C(F)(F)F)cn3)ccc2n1)N1C[C@H]2C[C@@H]1CN2 [Example 241, (1R,4R)-2,5-diazabicyclo[2.2.1]hept-2-yl(6-{[5-(trifluoromethyl)pyridin-2-yl]oxy}quinolin-2-yl)methanone] | 1.85
18 | O=C(NCCCc1ccccn1)c1ccc2cc(Oc3ccc(C(F)(F)F)cn3)ccc2n1 [Example 607, N-[3-(pyridin-2-yl)propyl]-6-{[5-(trifluoromethyl)pyridin-2-yl]oxy}quinoline-2-carboxamide] | 0.91
19 | N#Cc1ccc(Oc2ccc3nc(C(=O)N4CCNC(=O)C4)ccc3c2)cc1 [Example 137, 4-({2-[(3-oxopiperazin-1-yl)carbonyl]quinolin-6-yl}oxy)benzonitrile] | 8.24
20 | O=C(c1ccc2cc(Oc3ccc(S(=O)(=O)C(F)(F)F)cc3)ccc2n1)N1CCNCC1 [Example 215, piperazin-1-yl(6-{4-[(trifluoromethyl)sulfonyl]phenoxy}quinolin-2-yl)methanone] | 0.81
21 | O=C(c1ccc2cc(Oc3ccc(C(F)(F)F)cn3)ccc2n1)N1CCC(F)(COc2ccccc2)C1 (stereo not drawn) [Example 491, [3-fluoro-3-(phenoxymethyl)pyrrolidin-1-yl](6-{[5-(trifluoromethyl)pyridin-2-yl]oxy}quinolin-2-yl)methanone] | 4.99
22 | O=C(c1ccc2cc(Oc3ccc(C(F)(F)F)cn3)ccc2n1)N1CCc2ccncc2C1 [Example 222, 3,4-dihydro-2,7-naphthyridin-2(1H)-yl(6-{[5-(trifluoromethyl)pyridin-2-yl]oxy}quinolin-2-yl)methanone] | 2.15
23 | N#Cc1ccc(Oc2ccc3nc(C(=O)NCc4cccc(OC(F)(F)F)c4)ccc3c2)cc1 [Example 102, 6-(4-cyanophenoxy)-N-[3-(trifluoromethoxy)benzyl]quinoline-2-carboxamide] | > 20

Same assay, conditions: read-out: FRET-Membrane Potential Nav1.7 IC50

Row | Molecule | IC50 [µM]
24 | O=C1NCCN(C(=O)c2ccc3cc(Oc4ccc(C(F)(F)F)cn4)ccc3n2)C1c1ccccc1 (stereo not drawn) [Example 208, 3-phenyl-4-[(6-{[5-(trifluoromethyl)pyridin-2-yl]oxy}quinolin-2-yl)carbonyl]piperazin-2-one] | 3.05
25 | O=C(c1ccc2cc(Oc3ccc(C(F)(F)F)cn3)ccc2n1)N1CCC2(C1)OCCO2 [Example 352, 1,4-dioxa-7-azaspiro[4.4]non-7-yl(6-{[5-(trifluoromethyl)pyridin-2-yl]oxy}quinolin-2-yl)methanone] | 3.28
26 | O=C(NC1CCS(=O)(=O)C1)c1ccc2cc(Oc3ncc(C(F)(F)F)cn3)ccc2n1 (stereo not drawn) [Example 155, N-(1,1-dioxidotetrahydrothiophen-3-yl)-6-{[5-(trifluoromethyl)pyrimidin-2-yl]oxy}quinoline-2-carboxamide] | 5.38
27 | O=C(c1ccc2cc(Oc3ccc(C(F)F)cn3)ccc2n1)N1CC(N2CCOCC2)C1 [Example 429, (6-{[5-(difluoromethyl)pyridin-2-yl]oxy}quinolin-2-yl) [3-(morpholin-4-yl)azetidin-1-yl]methanone] | 13.8

From US9452986B2, “6-heteroaryloxy- or 6-aryloxy-quinoline-2-carboxamides and method of use” (AbbVie Inc., priority 2014, dated 2016)
